Laboratory results: patent US10203334B2, “Methods and compositions related to nucleic acid binding assays” (Nubad, LLC, priority 2012, dated 2019)
Where two headings read alike, the source gives them in different places.

Experiments:
[1] = system: E. coli rRNA A-site oligonucleotide (SEQ ID NO. 1); assay: Fluorescence titration of F-neo with bacterial rRNA A-site oligonucleotide and titration of the complex with neomycin; format: binding; conditions: 1:1 stoichiometric ratio of conjugate and A-site oligonucleotide; pH 7.0
Source text: This compound F-neo or 42a is a fluorescein conjugate coupled through the 5″ OH position of the ribose ring of neomycin B (H. Xi, E. Davis, N. Ranjan, L. Xue, D. Hyde-Volpe, D. P. Arya, Thermodynamics of nucleic Acid “shape readout” by an aminosugar, Biochemistry. 50 (2011) 9088-9113). E. coli rRNA Asite oligonucleotide (SEQ ID NO. 1, […]) is a synthetic RNA sequence 27 bases long designed to mimic the ribosomal A-site. The A-site oligonucleotide (SEQ ID NO. 1) is titrated into F-neo (42a) to give a concentration dependent loss of fluorescence of F-neo (42a). […]
The effect of bacterial A-site oligonucleotide (SEQ ID No. 1) on the fluorescence emission intensity of a fluorescein-neomycin conjugate (F-neo or 42a) is recorded in FIG. 2. […]
The F-neo (42a) can be competitively displaced from the A-site RNA oligonucleotide (SEQ ID No. 1) by the addition of non-fluorescent RNA binding drugs. Titrating neomycin into the F-neo (42a):A-site complex increases the fluorescence in a dose dependent manner that saturates at a 1:1 stoichiometric ratio of drug-to-complex. Additionally, a strong signal window, measured as an increase in fluorescence is present at a 3:1 molar ratio, and a maximum change in fluorescence at approximately 10:1 molar ratio. […] Fluorescence emission intensity (517 nm) of 0.3 mM A-site oligonucletide/F-neo complex solution increased with increasing concentration of neomycin. […]

[2] = pKa of free probe from pH-dependent absorbance spectra; format: physicochemical
Description: The mechanism for change in fluorescence of F-Neo upon binding to A-site rRNA oligonucleotide (SEQ ID No. 1) using UV absorption spectroscopy was investigated. Effect of pH on the absorbance spectra of 3.0 mM fluorescein-neomycin in 20 mM MOPSO, 0.4 mM EDTA, 50 mM NaCl at the indicated pH values were studied.
With increasing pH, fluorescein-neomycin undergoes a transition between mono-anion and di-anion species. Fluorescein-neomycin concentration was 10 μM in 100 mM NaCl, 10 mM SC, 0.5 mM EDTA. As indicated by its absorbance spectra in FIG. 8A, the F-neo transitions from a mono-anion to a di-anion with increasing pH. FIG. 8B compares the absorbance spectra between the mono-anion and di-anion species of fluorescein neomycin. […] The absorbance peak of about 490 nm in FIGS. 8A and 8B is consistent with the phenolate species of fluorescein. The pKa for the equilibrium of the phenol and phenolate forms of F-neo (42a) was measured by evaluating the absorbance spectrum as a function of pH and shown to be 6.84. […] When monitoring the absorption spectrum in the presence of the A-site RNA (SEQ ID No. 1), a reduction in A490 consistent with the change in pKa was observed. […] This shift in pKa causes a change in the fluorescence intensity of F-neo (42a). […]

[3] = system: 16S A-site rRNA (SEQ ID No. 1); assay: Competition dialysis; format: binding, E. coli; conditions: 100 nM ligand, 72 h dialysis, pH 7.0
Source text: Disclosed is the use of fluorescent aminosugar probes such as F-neo (42a) to probe a variety of nucleic acid targets. Competition dialysis was used as a nucleic acid screening technique to illustrate the binding of F-neo (42a) to different nucleic acid structures.
Competition dialysis studies using a fluorescein-neomycin conjugate (F-neo (42a)). […] Comparative binding of F-neo (42a) to 13 different nucleic acid structures was examined which included single strand nucleic acids [poly(dT), poly(A), poly(U)], duplexes [poly(dA).poly(dT), poly(rA).poly(dT), poly(rA).poly(rU), poly(dA).poly(rU), poly(dG).poly(dC), calf thymus], triplexes [poly(dA).2poly(dT), poly(rA).2poly(rU)], i-motif (polydC) and 16S A-site rRNA (SEQ ID No. 1). The amount of F-neo (42a) bound to each nucleic acid is shown as a bar graph in FIG. 13. Because all nucleic acids are dialyzed simultaneously in the same ligand solution, the amount of bound F-neo (42a) is directly proportional to its affinity for each nucleic acid. […] 200 μL of different nucleic acids (7.5 μM per monomeric unit of each polymer) was dialyzed for 72 h with 400 mL 100 nM ligand in 6 mM Na2HPO4, 2 mM NaH2PO4, 1 mM Na2EDTA, pH 7.0 and various Na+ concentrations as indicated.
F-neo (42a) prefers to bind to 16S A-site rRNA yielding a bound ligand concentration of 85 nM in 100 mM Na^+, 50 nM in 150 mM Na^+, and 15 nM in 200 mM Na^+ is shown in FIG. 15.

## NCC1O[C@H](OC2C(O)C(OC3C(O)[C@H](N)CC(N)[C@H]3O[C@H]3OC(CN)[C@@H](O)C(O)C3N)O[C@@H]2CSCCNC(=O)CCSCC(=O)Nc2ccc(-c3c4ccc(=O)cc-4oc4cc(O)ccc34)c(C(=O)O)c2)C(N)C(O)[C@@H]1O (stereo partly drawn) [F-neo (42a), Neomycin-Fluorescein Conjugate]
[1]
  reduction in fluorescence emission intensity: 3 fold
[2]; buffer: 100 mM NaCl, free, 10 μM, 100 mM NaCl, 10 mM SC, 0.5 mM EDTA at 25° C., read-out: pKa
  pKa: 6.57
[2]; free probe, absorbance spectrum as a function of pH, read-out: pKa for the equilibrium of the phenol and phenolate forms
  pKa: 6.84
[3]; 100 mM Na^+
  bound ligand concentration: 85 nM
[3]; 150 mM Na^+
  bound ligand concentration: 50 nM
[3]; 200 mM Na^+
  bound ligand concentration: 15 nM
